In PubChem BioAssay AID1259407 (Chemical Carcinogenesis Research Information System (CCRIS), 2018):
Activity calls are given as the source filed them. No rule for the calls is given here.

Test system: CCRIS mutagenicity, Ames/micronucleus/aberration tests
Assay: CCRIS mutagenicity studies

Measured: mutagenic call

Cc1cc(-c2cc(C)c(N)c(C)c2)cc(C)c1N
inactive: Test System: AMES SALMONELLA TYPHIMURIUM, Strain/Indicator: TA97, Metabolic Activation: HAMSTER, LIVER, S-9, AROCLOR 1254 (10%), Method: PREINCUBATION inactive; negative | Test System: AMES SALMONELLA TYPHIMURIUM, Strain/Indicator: TA97, Metabolic Activation: HAMSTER, LIVER, S-9, AROCLOR 1254 (30%), Method: PREINCUBATION inactive; negative | Test System: AMES SALMONELLA TYPHIMURIUM, Strain/Indicator: TA97, Metabolic Activation: NONE, Method: PREINCUBATION inactive; negative | Test System: AMES SALMONELLA TYPHIMURIUM, Strain/Indicator: TA97, Metabolic Activation: RAT, LIVER, S-9, AROCLOR 1254 (10%), Method: PREINCUBATION inactive; negative | Test System: AMES SALMONELLA TYPHIMURIUM, Strain/Indicator: TA97, Metabolic Activation: RAT, LIVER, S-9, AROCLOR 1254 (30%), Method: PREINCUBATION inactive; negative | Test System: AMES SALMONELLA TYPHIMURIUM, Strain/Indicator: TA98, Metabolic Activation: HAMSTER, LIVER, S-9, AROCLOR 1254 (10%), Method: PREINCUBATION inactive; negative | Test System: AMES SALMONELLA TYPHIMURIUM, Strain/Indicator: TA98, Metabolic Activation: HAMSTER, LIVER, S-9, AROCLOR 1254 (30%), Method: PREINCUBATION inactive; negative | Test System: AMES SALMONELLA TYPHIMURIUM, Strain/Indicator: TA98, Metabolic Activation: NONE, Method: PREINCUBATION inactive; negative | Test System: AMES SALMONELLA TYPHIMURIUM, Strain/Indicator: TA98, Metabolic Activation: RAT LIVER S-9, AROCLOR 1254, Method: PREINCUBATION inactive; negative | Test System: AMES SALMONELLA TYPHIMURIUM, Strain/Indicator: TA98, Metabolic Activation: RAT, LIVER, S-9, AROCLOR 1254 (10%), Method: PREINCUBATION inactive; negative | Test System: AMES SALMONELLA TYPHIMURIUM, Strain/Indicator: TA98, Metabolic Activation: RAT, LIVER, S-9, AROCLOR 1254 (30%), Method: PREINCUBATION inactive; negative | Test System: AMES SALMONELLA TYPHIMURIUM, Strain/Indicator: TA100, Metabolic Activation: HAMSTER, LIVER, S-9, AROCLOR 1254 (10%), Method: PREINCUBATION inactive; negative | Test System: AMES SALMONELLA TYPHIMURIUM, Strain/Indicator: TA100, Metabolic Activation: HAMSTER, LIVER, S-9, AROCLOR 1254 (30%), Method: PREINCUBATION inactive; negative | Test System: AMES SALMONELLA TYPHIMURIUM, Strain/Indicator: TA100, Metabolic Activation: NONE, Method: PREINCUBATION inactive; negative | Test System: AMES SALMONELLA TYPHIMURIUM, Strain/Indicator: TA100, Metabolic Activation: RAT LIVER S-9, AROCLOR 1254, Method: PREINCUBATION inactive; negative | Test System: AMES SALMONELLA TYPHIMURIUM, Strain/Indicator: TA100, Metabolic Activation: RAT, LIVER, S-9, AROCLOR 1254 (10%), Method: PREINCUBATION inactive; negative | Test System: AMES SALMONELLA TYPHIMURIUM, Strain/Indicator: TA100, Metabolic Activation: RAT, LIVER, S-9, AROCLOR 1254 (30%), Method: PREINCUBATION inactive; negative | Test System: AMES SALMONELLA TYPHIMURIUM, Strain/Indicator: TA1535, Metabolic Activation: HAMSTER, LIVER, S-9, AROCLOR 1254 (10%), Method: PREINCUBATION inactive; negative | Test System: AMES SALMONELLA TYPHIMURIUM, Strain/Indicator: TA1535, Metabolic Activation: HAMSTER, LIVER, S-9, AROCLOR 1254 (30%), Method: PREINCUBATION inactive; negative | Test System: AMES SALMONELLA TYPHIMURIUM, Strain/Indicator: TA1535, Metabolic Activation: NONE, Method: PREINCUBATION inactive; negative | Test System: AMES SALMONELLA TYPHIMURIUM, Strain/Indicator: TA1535, Metabolic Activation: RAT, LIVER, S-9, AROCLOR 1254 (10%), Method: PREINCUBATION inactive; negative | Test System: AMES SALMONELLA TYPHIMURIUM, Strain/Indicator: TA1535, Metabolic Activation: RAT, LIVER, S-9, AROCLOR 1254 (30%), Method: PREINCUBATION inactive; negative | Test System: Ames Salmonella typhimurium, Strain/Indicator: TA102, Metabolic Activation: None, Method: Preincubation inactive; negative | Test System: Ames Salmonella typhimurium, Strain/Indicator: TA102, Metabolic Activation: Rat, liver, S-9, Aroclor 1254, Method: Preincubation inactive; negative | Test System: MOUSE LYMPHOMA, Strain/Indicator: L5178Y (TK+/TK-), Metabolic Activation: RAT, LIVER, S-9, AROCLOR 1254, Method: SUSPENSION/PLATE inactive; negative | Test System: MOUSE LYMPHOMA, Strain/Indicator: L5178Y (TK+/TK-), Metabolic Activation: RAT, LIVER, S-9, Method: SUSPENSION/PLATE inactive; negative

Cc1cc(C)c(C)cc1C
inactive: Test System: AMES SALMONELLA TYPHIMURIUM, Strain/Indicator: TA97A, Metabolic Activation: NONE, Method: STANDARD PLATE inactive; negative | Test System: AMES SALMONELLA TYPHIMURIUM, Strain/Indicator: TA97A, Metabolic Activation: RAT LIVER S-9, AROCLOR 1254, Method: STANDARD PLATE inactive; negative | Test System: AMES SALMONELLA TYPHIMURIUM, Strain/Indicator: TA98, Metabolic Activation: NONE, Method: STANDARD PLATE inactive; negative | Test System: AMES SALMONELLA TYPHIMURIUM, Strain/Indicator: TA98, Metabolic Activation: RAT LIVER S-9, AROCLOR 1254, Method: STANDARD PLATE inactive; negative | Test System: AMES SALMONELLA TYPHIMURIUM, Strain/Indicator: TA100, Metabolic Activation: NONE, Method: STANDARD PLATE inactive; negative | Test System: AMES SALMONELLA TYPHIMURIUM, Strain/Indicator: TA100, Metabolic Activation: RAT LIVER S-9, AROCLOR 1254, Method: STANDARD PLATE inactive; negative | Test System: AMES SALMONELLA TYPHIMURIUM, Strain/Indicator: TA102, Metabolic Activation: NONE, Method: STANDARD PLATE inactive; negative | Test System: AMES SALMONELLA TYPHIMURIUM, Strain/Indicator: TA102, Metabolic Activation: RAT LIVER S-9, AROCLOR 1254, Method: STANDARD PLATE inactive; negative
